Holding throughout (experiment): relative viability (nuclei count vs DMSO), 5 days (fraction); higher = more cells survive
Compound in assay [1]: O=c1[nH]cc(F)c(=O)[nH]1 [5-Fluorouracil] + Nc1ncn([C@H]2C[C@H](O)[C@@H](CO)O2)c(=O)n1 [Decitabine] (partner 2 µM)
In short, it runs like this: (§1)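 Lung cancer cell lines were seeded in 1536-well plates and dosed by pin tool the next day, with either a single drug or a fixed anchor-drug dose combined with five library-drug doses (not always all listed) spaced in √10 steps. Five days later, one step fixed the cells and stained their nuclei (final 0.05% Triton X-100, 1% formaldehyde, 1 ug/ml Hoechst), and nuclei were counted on 4× images. Relative viability is the nuclei count in treated wells divided by the count in vehicle wells, and each value is the median of duplicate plates.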

Compound in the assay “Sulindac + Olaparib”: CC1=C(CC(=O)O)c2cc(F)ccc2/C1=C\c1ccc([S+](C)[O-])cc1 [Sulindac] + O=C(c1cc(Cc2n[nH]c(=O)c3ccccc23)ccc1F)N1CCN(C(=O)C2CC2)CC1 [Olaparib] (partner 8 µM)
In short, it runs like this: as §1

Compound in assay [2]: CN[C@@H]1C[C@H]2O[C@@](C)([C@@H]1OC)n1c3ccccc3c3c4c(c5c6ccccc6n2c5c31)C(=O)NC4 [Staurosporine] + C[C@@H](Oc1cc(-c2cnn(C3CCNCC3)c2)cnc1N)c1c(Cl)ccc(F)c1Cl [Crizotinib] (partner 1 µM)
In short, it runs like this: as §1

Compound in assay [3]: O=c1[nH]cc(F)c(=O)[nH]1 [5-Fluorouracil] + CC(C)C[C@H](NC(=O)[C@H](Cc1ccccc1)NC(=O)c1cnccn1)B(O)O [Bortezomib] (partner 0.002 µM)
In short, it runs like this:
as §1

For the cell line UMC-11, the relative viability in assay [1] (first compound 0.02 µM) was found to be 0.593; in assay [1] (first compound 0.2 µM), 0.565; in assay [1] (first compound 0.6325 µM) it was 0.497; with Sulindac + Olaparib (first compound 0.08 µM), 0.463; with Sulindac + Olaparib (first compound 0.253 µM), 0.342; with Sulindac + Olaparib (first compound 0.8 µM) it was 0.42. Also, the relative viability in the assay with Sulindac + Olaparib (first compound 2.53 µM) was found to be 0.339; with Sulindac + Olaparib (first compound 8 µM), 0.332; in assay [2] (first compound 0.005 µM), 0.544; in assay [2] (first compound 0.01581 µM), 0.406; in assay [2] (first compound 0.05 µM), 0.207; in assay [2] (first compound 0.1581 µM), 0.0703. For the same cell line, the relative viability in assay [2] (first compound 0.5 µM) worked out at 0.0402; in assay [3] (first compound 0.02 µM), 0.674; in assay [3] (first compound 0.2 µM), 0.542; in assay [3] (first compound 0.6325 µM), 0.368; in assay [3] (first compound 2 µM) it was 0.35.

These data come from the supplement of paper PMC10307832.
